Reference: PubChem BioAssay (NCI)
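All cell lines were grown in 96-well plates and treated with compound for 48 hours. At the GI50, growth is halved. TGI marks complete inhibition of growth.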

Tests used:
Assay in all cases: NCI anticancer screen, dose series, 48 h
RPMI-8226 leukemia = tested on: RPMI-8226 leukemia
786-0 renal = tested on: 786-0 renal
SW-620 colon = tested on: SW-620 colon
NCI-H226 lung = tested on: NCI-H226 lung
SK-MEL-5 melanoma = tested on: SK-MEL-5 melanoma
HL-60(TB) leukemia = tested on: HL-60(TB) leukemia
HCT-116 colon = tested on: HCT-116 colon
LOX IMVI melanoma = tested on: LOX IMVI melanoma
HT29 colon = tested on: HT29 colon
SF-539 CNS = tested on: SF-539 CNS

Row | Compound | TGI (RPMI-8226 leukemia) | TGI (786-0 renal) | TGI (SW-620 colon) | TGI (NCI-H226 lung) | TGI (SK-MEL-5 melanoma) | TGI (HL-60(TB) leukemia) | TGI (HCT-116 colon) | TGI (LOX IMVI melanoma) | TGI (HT29 colon) | GI50 (RPMI-8226 leukemia) | GI50 (786-0 renal) | GI50 (NCI-H226 lung) | GI50 (SK-MEL-5 melanoma) | GI50 (HCT-116 colon) | GI50 (LOX IMVI melanoma) | TGI (SF-539 CNS) | GI50 (SW-620 colon) | GI50 (SF-539 CNS) | GI50 (HL-60(TB) leukemia)
1 | O=c1cccccc1O | > 100 µM | > 100 µM | > 100 µM | > 100 µM | > 100 µM | 43.7 µM | > 100 µM | > 100 µM | > 100 µM |  |  |  |  |  |  |  |  |  | 
2 | C=C(C)[C@@H]1C/C=C(/COC(C)=O)CC[C@H]2O[C@@]2(C)CC/C=C(\C)CC1 | 44 µM | > 100 µM |  | > 100 µM | > 100 µM |  | > 100 µM | 46.5 µM |  | 21.1 µM | 67.9 µM | > 100 µM | > 100 µM | 38 µM | 20.3 µM |  |  |  | 
3 | COc1ccc(C2=NN(C(C)=O)c3nc4ccccc4nc3O2)cc1 | > 100 µM | 48.7 µM | > 100 µM |  |  | > 100 µM | > 100 µM |  | > 100 µM |  |  |  |  |  |  | 43.1 µM |  |  | 
4 | COc1ccc(OC)c(-c2cc(-c3ccc(Cl)cc3)nn2-c2ccccc2)c1 | 26.5 µM | 57.7 µM | 78.4 µM | > 100 µM | > 100 µM | > 100 µM |  |  |  | 3.29 µM | 17.3 µM | 33 µM | 42.2 µM |  |  | 95.2 µM | 17 µM | 36 µM | 35.9 µM
5 | CC(C)(C)c1cc[n+](C[n+]2ccc(C(C)(C)C)cc2)cc1 | > 100 µM | > 100 µM | > 100 µM | > 100 µM | > 100 µM | > 100 µM | > 100 µM |  | > 100 µM |  |  |  |  |  |  | > 100 µM |  |  | 
6 | Oc1ccc(Br)cc1C=NC1CCCCC1 | > 100 µM | > 100 µM | > 100 µM |  | 43.8 µM | 44.5 µM | 48.8 µM | > 100 µM | > 100 µM |  |  |  |  |  |  | > 100 µM |  |  | 
7 | Cn1c(=O)nc2n(-c3ccc(F)c(F)c3)c3ccccc3nc-2c1=O | 72.2 µM | > 100 µM | 20.3 µM | > 100 µM | 22.5 µM | 34.9 µM | 26.5 µM |  | 16 µM |  |  |  |  |  |  | > 100 µM |  |  | 
8 | Cc1cccc2c(=O)c3c(sc12)c(NCCCN)nc1ccccc13 | 3.88 µM | 3.28 µM | 2.66 µM |  | 3.18 µM | 3.34 µM | 2.91 µM | 2.98 µM |  | 1.77 µM | 1.69 µM |  | 1.74 µM | 1.48 µM | 1.46 µM | 3.09 µM | 1.19 µM | 1.69 µM | 1.71 µM
9 | CN1CCN(c2ccncc2S(=O)(=O)N2CCN(C)CC2)CC1 | > 100 µM | > 100 µM | > 100 µM | > 100 µM | > 100 µM |  | > 100 µM | > 100 µM | > 100 µM |  |  |  |  |  |  | > 100 µM |  |  | 
10 | CSc1ccc(Cc2cc(C(C)(C)C)cc(C(C)(C)C)c2O)cc1 | 20.8 µM | 30.4 µM | 29.7 µM |  | 28.9 µM | 25.1 µM | 22.7 µM | 22.4 µM | 27.5 µM |  |  |  |  |  |  | 31.8 µM |  |  | 
